Details: Liquid, Pulse-echo method

Cc1ccccc1 [toluene]
Details	speed of sound [m/s]
240 K, 103.32 kPa	1571
240 K, 1104.2 kPa	1575
240 K, 2104.9 kPa	1578.9
240 K, 3105.7 kPa	1582.8
240 K, 4106.3 kPa	1586.7
240 K, 5107.4 kPa	1590.5
240 K, 6107.7 kPa	1594.3
240 K, 7108.4 kPa	1598.1
240 K, 8109.1 kPa	1601.9
240 K, 9109.8 kPa	1605.7
240 K, 10110 kPa	1609.4
240 K, 12612 kPa	1618.6
240 K, 15114 kPa	1627.7
240 K, 17616 kPa	1636.7
240 K, 20117 kPa	1645.6
240 K, 25121 kPa	1663
240 K, 30124 kPa	1680
240 K, 35127 kPa	1696.5
240 K, 40131 kPa	1712.7
240 K, 45134 kPa	1728.5
240 K, 50138 kPa	1744
240 K, 60144 kPa	1774
240 K, 70151 kPa	1802.9
240 K, 80158 kPa	1830.7
240 K, 90165 kPa	1857.6
240 K, 100172 kPa	1883.6
260 K, 102.53 kPa	1476.8
260 K, 1103.4 kPa	1481.1
260 K, 2104 kPa	1485.4
260 K, 3104.8 kPa	1489.7
260 K, 4105.6 kPa	1493.9
260 K, 5106.5 kPa	1498.1
260 K, 6106.8 kPa	1502.3
260 K, 7107.5 kPa	1506.5
260 K, 8108.3 kPa	1510.6
260 K, 9109 kPa	1514.7
260 K, 10110 kPa	1518.8
260 K, 12612 kPa	1528.8
260 K, 15114 kPa	1538.7
260 K, 17615 kPa	1548.5
260 K, 20117 kPa	1558.1
260 K, 25121 kPa	1576.9
260 K, 30124 kPa	1595.2
260 K, 35128 kPa	1613
260 K, 40131 kPa	1630.4
260 K, 45134 kPa	1647.3
260 K, 50138 kPa	1663.9
260 K, 60145 kPa	1695.8
260 K, 70152 kPa	1726.5
260 K, 80160 kPa	1756
260 K, 90166 kPa	1784.3
260 K, 100174 kPa	1811.7
280 K, 103.62 kPa	1385.5
280 K, 1104.5 kPa	1390.2
280 K, 2105.3 kPa	1395
280 K, 3106.2 kPa	1399.7
280 K, 4107.1 kPa	1404.3
280 K, 5107.6 kPa	1408.9
280 K, 6108.1 kPa	1413.5
280 K, 7108.8 kPa	1418
280 K, 8109.4 kPa	1422.5
280 K, 9110.1 kPa	1427
280 K, 10111 kPa	1431.5
280 K, 12612 kPa	1442.4
280 K, 15114 kPa	1453.2
280 K, 17616 kPa	1463.8
280 K, 20118 kPa	1474.2
280 K, 25122 kPa	1494.5
280 K, 30125 kPa	1514.2
280 K, 35128 kPa	1533.3
280 K, 40132 kPa	1551.9
280 K, 45135 kPa	1570
280 K, 50138 kPa	1587.6
280 K, 60145 kPa	1621.5
280 K, 70152 kPa	1654
280 K, 80159 kPa	1685.1
280 K, 90166 kPa	1714.9
280 K, 100173 kPa	1743.7
300 K, 102.33 kPa	1297.2
300 K, 103.33 kPa	1297.1
300 K, 1103.2 kPa	1302.4
300 K, 2104.1 kPa	1307.6
300 K, 3104.7 kPa	1312.7
300.01 K, 1104.2 kPa	1302.4
300.01 K, 2104.9 kPa	1307.6
300.01 K, 3105.6 kPa	1312.7
300.01 K, 4106.4 kPa	1317.8
300.01 K, 5107 kPa	1322.9
300.01 K, 6107.4 kPa	1327.9
300.01 K, 7108.1 kPa	1332.8
300.01 K, 8108.7 kPa	1337.8
300.01 K, 9109.4 kPa	1342.6
300.01 K, 10110 kPa	1347.5
300.01 K, 12612 kPa	1359.4
300.01 K, 15113 kPa	1371.1
300.01 K, 17615 kPa	1382.5
300.01 K, 20117 kPa	1393.8
300.01 K, 25120 kPa	1415.7
300.01 K, 30124 kPa	1436.8
300.01 K, 35127 kPa	1457.3
300.01 K, 40130 kPa	1477.1
300.01 K, 45133 kPa	1496.4
300.01 K, 50136 kPa	1515.1
300.01 K, 60143 kPa	1551.1
300.01 K, 70150 kPa	1585.4
300.01 K, 80158 kPa	1618.1
300.01 K, 90166 kPa	1649.4
300.01 K, 100172 kPa	1679.5
320 K, 102.82 kPa	1211.6
320 K, 102.83 kPa	1211.6
320 K, 1103.6 kPa	1217.3
320 K, 2104.3 kPa	1223.1
320 K, 3105 kPa	1228.7
320 K, 4105.8 kPa	1234.3
320 K, 5106.6 kPa	1239.9
320 K, 6107.1 kPa	1245.4
320 K, 7107.8 kPa	1250.8
320 K, 8108.5 kPa	1256.2
320 K, 9109.2 kPa	1261.5
320 K, 10110 kPa	1266.8
320 K, 12612 kPa	1279.7
320 K, 15113 kPa	1292.4
320 K, 17615 kPa	1304.8
320 K, 20117 kPa	1317
320 K, 25120 kPa	1340.5
320 K, 30124 kPa	1363.2
320 K, 35127 kPa	1385.1
320 K, 40131 kPa	1406.2
320 K, 45134 kPa	1426.7
320 K, 50138 kPa	1446.5
320 K, 60145 kPa	1484.5
320 K, 70152 kPa	1520.6
320 K, 80159 kPa	1554.9
320 K, 90166 kPa	1587.7
320 K, 100173 kPa	1619.1
340 K, 102.94 kPa	1128.5
340 K, 103.2 kPa	1128.5
340 K, 1103.7 kPa	1134.9
340 K, 1104.1 kPa	1134.9
340 K, 2104.3 kPa	1141.2
340 K, 2104.9 kPa	1141.2
340 K, 3105 kPa	1147.5
340 K, 3105.8 kPa	1147.5
340 K, 4105.8 kPa	1153.6
340 K, 4106.6 kPa	1153.6
340 K, 5107.2 kPa	1159.7
340 K, 6107.7 kPa	1165.7
340 K, 7108.4 kPa	1171.7
340 K, 8109.1 kPa	1177.5
340 K, 9109.7 kPa	1183.4
340 K, 10110 kPa	1189.1
340 K, 12612 kPa	1203.2
340 K, 15114 kPa	1217
340 K, 17615 kPa	1230.4
340 K, 20117 kPa	1243.5
340 K, 25120 kPa	1268.8
340 K, 30124 kPa	1293.1
340 K, 35128 kPa	1316.4
340 K, 40131 kPa	1338.9
340 K, 45135 kPa	1360.6
340 K, 50139 kPa	1381.6
340 K, 60146 kPa	1421.7
340 K, 70153 kPa	1459.5
340 K, 80160 kPa	1495.4
340 K, 90166 kPa	1529.6
340 K, 100174 kPa	1562.3
359.99 K, 10111 kPa	1114.3
359.99 K, 12613 kPa	1129.7
359.99 K, 15114 kPa	1144.6
359.99 K, 17616 kPa	1159.1
359.99 K, 20117 kPa	1173.3
359.99 K, 25121 kPa	1200.5
359.99 K, 30124 kPa	1226.4
359.99 K, 35128 kPa	1251.3
359.99 K, 40131 kPa	1275.1
359.99 K, 45134 kPa	1298.1
359.99 K, 50138 kPa	1320.2
359.99 K, 60145 kPa	1362.3
359.99 K, 70152 kPa	1402
359.99 K, 80159 kPa	1439.4
359.99 K, 90166 kPa	1475
359.99 K, 100173 kPa	1508.9
360 K, 103.4 kPa	1047.6
360 K, 1104.1 kPa	1054.7
360 K, 2104.8 kPa	1061.7
360 K, 3105.4 kPa	1068.6
360 K, 4106.4 kPa	1075.4
360 K, 5107 kPa	1082.1
360 K, 6107.4 kPa	1088.7
360 K, 7108 kPa	1095.2
360 K, 8108.7 kPa	1101.7
360 K, 9109.5 kPa	1108
360 K, 10110 kPa	1114.3
360 K, 12612 kPa	1129.7
380 K, 101.06 kPa	968.43
380 K, 1102.5 kPa	976.37
380 K, 2103.4 kPa	984.15
380 K, 3104.1 kPa	991.81
380 K, 4105 kPa	999.34
380 K, 5105.7 kPa	1006.7
380 K, 6106.1 kPa	1014
380 K, 7106.8 kPa	1021.2
380 K, 8107.6 kPa	1028.3
380 K, 9108.3 kPa	1035.2
380 K, 10109 kPa	1042.1
380 K, 12611 kPa	1058.8
380 K, 15113 kPa	1075
380 K, 17615 kPa	1090.7
380 K, 20117 kPa	1106
380 K, 25120 kPa	1135.2
380 K, 30124 kPa	1162.9
380 K, 35127 kPa	1189.3
380 K, 40131 kPa	1214.5
380 K, 45134 kPa	1238.8
380 K, 50138 kPa	1262.1
380 K, 60144 kPa	1306.3
380 K, 70152 kPa	1347.7
380 K, 80159 kPa	1386.7
380 K, 90166 kPa	1423.6
380 K, 100173 kPa	1458.8
400 K, 603.01 kPa	894.98
400 K, 608.94 kPa	895.04
400 K, 1104.2 kPa	899.42
400 K, 2104.6 kPa	908.15
400 K, 3105.3 kPa	916.7
400 K, 4105.1 kPa	925.08
400 K, 4106 kPa	925.07
400 K, 5106.7 kPa	933.29
400 K, 6107.4 kPa	941.35
400 K, 7108 kPa	949.26
400 K, 8108.7 kPa	957.04
400 K, 9109.3 kPa	964.69
400 K, 10110 kPa	972.21
400 K, 12612 kPa	990.48
400 K, 15113 kPa	1008.1
400 K, 17615 kPa	1025
400 K, 20117 kPa	1041.5
400 K, 25120 kPa	1072.8
400 K, 30123 kPa	1102.4
400 K, 35127 kPa	1130.4
400 K, 40130 kPa	1157.1
400 K, 45134 kPa	1182.7
400 K, 50138 kPa	1207.2
400 K, 60144 kPa	1253.4
400 K, 70152 kPa	1296.5
400 K, 80158 kPa	1337
400 K, 90166 kPa	1375.3
400 K, 100173 kPa	1411.7
420 K, 1102.5 kPa	823.4
420 K, 2103.2 kPa	833.27
420 K, 3103.9 kPa	842.89
420 K, 4104.6 kPa	852.28
420 K, 5105.2 kPa	861.45
420 K, 6105.9 kPa	870.42
420 K, 7106.6 kPa	879.2
420 K, 8107.3 kPa	887.79
420 K, 9108 kPa	896.21
420 K, 10109 kPa	904.48
420 K, 12610 kPa	924.47
420 K, 15112 kPa	943.61
420 K, 17614 kPa	961.99
420 K, 20116 kPa	979.68
420 K, 25119 kPa	1013.3
420 K, 30123 kPa	1044.8
420 K, 35126 kPa	1074.5
420 K, 40130 kPa	1102.7
420 K, 45133 kPa	1129.5
420 K, 50137 kPa	1155.2
420 K, 60144 kPa	1203.5
420 K, 70151 kPa	1248.4
420 K, 80158 kPa	1290.4
420 K, 90165 kPa	1329.9
420 K, 100172 kPa	1367.4
